Results published in patent publication US20110159515A1, “COMPOSITIONS AND METHODS FOR THE RAPID GROWTH AND DETECTION OF MICROORGANISMS” (SOLUS SCIENTIFIC SOLUTIONS LIMITED, priority 2008, published 2011).
Values joined by “and” are separate entries in the source; they are usually repeats but may differ in a detail not shown here. Identical values can stand only once. Like-named read-outs stand apart in the source and are kept apart here.

Legend:
S. aberdeen = assay: Direct binding Salmonella assay (chemiluminescence immunosorbent); details: detergent level not given
Procedure: (§1) After 5 hours of culture, a 2 ml aliquot of the sample was removed and SDS was added to a final concentration of 0.5% (w/v). The sample was heated to 100° C. for 5 minutes and allowed to cool. One hundred microlitres of each test sample was added directly to a well of a solid white 96 well high binding microtitre plate (Greiner Bio One) and incubated at 37° C. for 30 minutes. During incubation, the lipid A portion of the LPS binds to the surface of the plate via non-covalent hydrophobic interactions (FIG. 1a (1), FIG. 1b(1)).
(§2) The final concentration of antibody per well was 50 ng. The plate-bound sample (Salmonella LPS/core oligosaccharide) and antibody were incubated in the coated wells for 30 minutes as 37° C. Following incubation, plates were washed three times in wash buffer and pat dried prior to detection (FIG. 1a(2), FIG. 1b(2)).
(§3) When the anti-Salmonella is directly labelled with acridinium ester, plates were placed into a luminometer. 30 μl of trigger solution A and 60 μl of trigger solution B was added to each well of the microtitre plate to initiate light output from conjugated acridinium ester (FIG. 1a(3)). The luminometer settings were as follows:
(§4) When the anti-Salmonella antibody is not labelled, a second binding member, a goat anti-mouse IgG2b conjugate is used. Post column IgG2b was diluted 1:100 in a diluent comprising 3% (w/v) non-fat milk powder and 0.05% (v/v) Tween 20 and 100 ul of this solution was added to each well of the plate (FIG. 1b(3)). Following incubation at 37° C. for 60 minutes the plate was washed four times in wash buffer, dried and read as above (FIG. 1b(4)).
The wells of an assay plate are coated with standard concentrations of bacteria for 1 hour at 37° C. These standard concentrations are: 10^6, 10^5, 5×10^4, 2.5×10^4, 10^4 and 5×10^3 and blank wells containing 10^6 E. coli. The fractions to be tested are diluted 1:100 in assay buffer and […] is added to each well and incubated at 37° C. for 20 minutes. The wells are then read on the luminometer, as above.

L. innocua = assay: as above; details: 10^6 L. innocua; detergent level not given
Procedure: as §1, with “The” for “After 5 hours of culture, a 2 ml aliquot of the sample was removed and SDS was added to a final concentration of 0.5% (w/v). The”
as §2, §3, §4
Monoclonal antibody (1:100 dilution) was incubated with either Salmonella or Listeria to determine optimum incubation times:
Monoclonal antibody (1:200 dilution) was incubated with either Salmonella or Listeria to determine optimum incubation times: […]

E. coli = assay: Growth response in tryptic soy broth with additive, A620 turbidity; format: cell-based; details: for A620: E. coli
Salmonella = assay: as above; format: cell-based, Salmonella aberdeen; details: for A620: Salmonella
[1] = 10^1 bacteria (species not given)
[2] = 10^2 bacteria (species not given)
[3] = 10^3 bacteria (species not given)
[4] = 10^4 bacteria (species not given)
[5] = 10^5 bacteria (species not given)
[6] = 10^6 bacteria (species not given)
[7] = 5 mg/litre brilliant green, high absorbance values due to absorbance of Brilliant Green
[8] = 7 mg/litre brilliant green, high absorbance values due to absorbance of Brilliant Green
[9] = 10 mg/litre brilliant green, high absorbance values due to absorbance of Brilliant Green
[10] = 2 to 16 g/L, tryptic soy broth, 37° C., 18 hours

CCCCCCCCCCCCCCCC[N+](C)(C)C.[Br-] [CTAB, cetyltrimethyammonium bromide]
signal, release and detection of core oligosaccharide (S. aberdeen; [1]): 8901 relative light units
signal, release and detection of core oligosaccharide (S. aberdeen; [2]): 9746 relative light units
signal, release and detection of core oligosaccharide (S. aberdeen; [3]): 21541 relative light units
signal, release and detection of core oligosaccharide (S. aberdeen; [4]): 203215 relative light units
signal, release and detection of core oligosaccharide (S. aberdeen; [5]): 775871 relative light units
signal, release and detection of core oligosaccharide (S. aberdeen; [6]): 866920 relative light units
signal, release and detection of core oligosaccharide (L. innocua): 7593 relative light units

CCCCCCCCCCCCCCCC[N+](C)(C)C.[Cl-] [CTAC, cetyltrimethyammoniumchloride]
signal, release and detection of core oligosaccharide (S. aberdeen; [1]): 10321 relative light units
signal, release and detection of core oligosaccharide (S. aberdeen; [2]): 12485 relative light units
signal, release and detection of core oligosaccharide (S. aberdeen; [3]): 22758 relative light units
signal, release and detection of core oligosaccharide (S. aberdeen; [4]): 205093 relative light units
signal, release and detection of core oligosaccharide (S. aberdeen; [5]): 792108 relative light units
signal, release and detection of core oligosaccharide (S. aberdeen; [6]): 881712 relative light units
signal, release and detection of core oligosaccharide (L. innocua): 7892 relative light units

C[C@H](CCC(=O)[O-])[C@H]1CC[C@H]2[C@@H]3[C@H](O)C[C@@H]4C[C@H](O)CC[C@]4(C)[C@H]3C[C@H](O)[C@]12C.[Na+] [SODIUM CHOLATE]
signal, release and detection of core oligosaccharide (S. aberdeen; [1]): 8858 relative light units
signal, release and detection of core oligosaccharide (S. aberdeen; [2]): 8921 relative light units
signal, release and detection of core oligosaccharide (S. aberdeen; [3]): 12088 relative light units
signal, release and detection of core oligosaccharide (S. aberdeen; [4]): 67710 relative light units
signal, release and detection of core oligosaccharide (S. aberdeen; [5]): 529553 relative light units
signal, release and detection of core oligosaccharide (S. aberdeen; [6]): 917476 relative light units
signal, release and detection of core oligosaccharide (L. innocua): 7495 relative light units

CCN(CC)c1ccc(C(=C2C=CC(=[N+](CC)CC)C=C2)c2ccccc2)cc1 [brilliant green]
levels at which growth of E. coli is limited (E. coli): ≥ 0.0003 g/L
A620 (E. coli; 0.15 mg/litre brilliant green): 0.102 and 0.118
A620 (E. coli; 0.3 mg/litre brilliant green): 0.043 and 0.062
A620 (E. coli; 1 mg/litre brilliant green): 0.037 and 0.035
A620 (E. coli; 3 mg/litre brilliant green): 0.041 and 0.034
A620 (E. coli; [7]): 0.250 and 0.230
A620 (E. coli; [8]): 0.524 and 0.500
A620 (E. coli; [9]): 0.624 and 0.665
levels at which growth of Salmonella is limited (Salmonella): ≥ 0.3 mg/L
optimum level for growth of Salmonella with inhibition of competing bacteria (Salmonella; FIG. 4): 0.15 mg/L
A620 (Salmonella; 0.15 mg/litre brilliant green): 0.255 and 0.229
A620 (Salmonella; 0.3 mg/litre brilliant green): 0.046 and 0.041
A620 (Salmonella; 1 mg/litre brilliant green): 0.057 and 0.040
A620 (Salmonella; 3 mg/litre brilliant green): 0.072 and 0.061
A620 (Salmonella; [7]): 0.282 and 0.256
A620 (Salmonella; [8]): 0.606 and 0.569
A620 (Salmonella; [9]): 0.614 and 0.607

O=C([O-])CC(O)(CC(=O)[O-])C(=O)[O-].[Na+].[Na+].[Na+] [sodium citrate, tri-sodium citrate]
levels at which growth of E. coli is limited (E. coli): ≥ 5 g/L
growth response of Shigella over those of Staphylococcus and E. coli (Shigella flexneri; 15 g/L): significantly increased
effect on growth of Shigella (Shigella flexneri; FIG. 6): enhanced
levels at which growth of Staphylococcus is limited (Staphylococcus aureus): ≥ 5 g/L

O=S(=O)([O-])SSS(=O)(=O)[O-].[Na+].[Na+] [sodium tetrathionate]
levels that inhibit the growth of E. coli (E. coli): > 4 g/L
effect on growth of E. coli (E. coli; [10]): inhibited
A620 (E. coli; 4 g/litre tetrathionate): 0.096 and 0.104
A620 (E. coli; 8 g/litre tetrathionate): 0.078 and 0.073
A620 (E. coli; 12 g/litre tetrathionate): 0.053 and 0.048
A620 (E. coli; 15 g/litre tetrathionate): 0.011
A620 (E. coli; 20 g/litre tetrathionate): 0.015 and 0.018
A620 (E. coli; 25 g/litre tetrathionate): 0.023 and 0.022
A620 (E. coli; 30 g/litre tetrathionate): 0.021 and 0.020
levels at which growth of Salmonella is inhibited (Salmonella): above 16 g/L
effect on growth of Salmonella (Salmonella; [10]): un-affected or promoted
effect on the growth of Salmonella (Salmonella; 8 g/litre): clear enhancing effect
A620 (Salmonella; 4 g/litre tetrathionate): 0.187 and 0.179
A620 (Salmonella; 8 g/litre tetrathionate): 0.818 and 0.848
A620 (Salmonella; 12 g/litre tetrathionate): 0.226 and 0.270
A620 (Salmonella; 15 g/litre tetrathionate): 0.167 and 0.186
A620 (Salmonella; 20 g/litre tetrathionate): 0.150 and 0.139
A620 (Salmonella; 25 g/litre tetrathionate): 0.086 and 0.099
A620 (Salmonella; 30 g/litre tetrathionate): 0.059 and 0.073
levels in a culture media that significantly inhibit the growth of Salmonella spp (Salmonella; summary statement): above 20 g/L
effect on growth of Shigella (Shigella flexneri; [10]): inhibited
effect on growth of Staphylococcus (Staphylococcus aureus; [10]): inhibited

TRITON X-100
signal, release and detection of core oligosaccharide (S. aberdeen; [1]): 9981 relative light units
signal, release and detection of core oligosaccharide (S. aberdeen; [2]): 10494 relative light units
signal, release and detection of core oligosaccharide (S. aberdeen; [3]): 22570 relative light units
signal, release and detection of core oligosaccharide (S. aberdeen; [4]): 203602 relative light units
signal, release and detection of core oligosaccharide (S. aberdeen; [5]): 867745 relative light units
signal, release and detection of core oligosaccharide (S. aberdeen; [6]): 455886 relative light units
signal, release and detection of core oligosaccharide (L. innocua): 7076 relative light units

ammonium ferric citrate
levels at which growth of E. coli is limited (E. coli): ≥ 0.25 g/L
effect on growth of Salmonella (Salmonella; levels above 0.25 g/l, FIG. 5): unaffected
optimum level for growth of Shigella (Shigella flexneri; FIG. 5): 0.25 g/L
levels at which growth of Staphylococcus is limited (Staphylococcus aureus): ≥ 0.25 g/L
